Earlier results as cited in patent US7501533B2, “Process for preparing lysophosphatidylcholine” (Chem SpA, priority 2004, dated 2009).

System: rats
Conditions: from Sax and others, Dangerous Properties of Industrial Materials, edition VII

## CCC[CH2][Sn](=[O])[CH2]CCC [dibutyltin oxide]
  LD50 (acute oral toxicity): LD50 = 44.9 mg/kg

## CCCCCCC[CH2][Sn](=[O])[CH2]CCCCCCC [dioctyltin oxide]
  LD50 (acute oral toxicity): LD50 = 2500 mg/kg
